Experimental data published in patent US12503475B2 (Centessa Pharmaceuticals (UK) Limited, priority 2020, dated 2025).
Read-outs that look alike come from different tables or passages of the source.

Key:
[1] = test system: B6.Cg-Tg(HCRT-MJD)1Stak/J (Atax) mouse model of NT1; experiment: Wake promoting efficacy, piezoelectric sleep/wake monitoring, Atax mice; type: in vivo; settings: dosed 5 h after light onset
Text: (§1) Wake-promoting efficacy of the compounds of the present disclosure may be evaluated in a model (e.g., the B6.Cg-Tg(HCRT-MJD)1Stak/J (Atax) mouse model of NT1 and wild type (WT) colony mates). The model (e.g., mouse model) may be monitored for rapid, non-invasive classification of sleep and wakefulness by unsupervised machine learning on physiologically relevant readouts, such as body movement and breath rate, after dosing of a compound of the present disclosure (e.g., oral dosing).
(§2) Wake-promoting efficacy was evaluated in the B6.Cg-Tg(HCRT-MJD)1Stak/J (Atax) mouse model of NT1 and wild type (WT) colony mates. Mice were monitored in home cages using piezoelectric sensors for rapid, non-invasive classification of sleep and wakefulness by unsupervised machine learning on physiologically relevant readouts, such as body movement and breath rate. Piezoelectric detection is highly correlated with conventional time-intensive electroencephalogram/electromyography measures of sleep/wake states in both WT and NT1 mice. In a counterbalanced design, mice were orally dosed at 5 h after light onset with test articles at 0 (vehicle), 3 and 30 mg/kg.

[2] = test system: wild type (WT) colony mates; experiment: Wake promoting efficacy, piezoelectric sleep/wake monitoring, wild type mice; type: in vivo, mouse; settings: oral dose 30 mg/kg, dosed 5 h after light onset
Text: as §1, §2

[3] = biological target: T1, human orexin type 2 receptor (hOX2R) (Homo sapiens, UniProt O43614); experiment: Measurement of orexin type 2 receptor agonist activity (FLIPR calcium fluorescence); type: cell-based; settings: CHO cells expressing hOX2R, FLIPR calcium fluorescence; for EC50: read-out: hOx2 pEC50 (converted); for Emax: CHO, read-out: hOx2 Emax (%)
T1 construct: expressed in transfected cells
T1 sequence (O43614 1-444): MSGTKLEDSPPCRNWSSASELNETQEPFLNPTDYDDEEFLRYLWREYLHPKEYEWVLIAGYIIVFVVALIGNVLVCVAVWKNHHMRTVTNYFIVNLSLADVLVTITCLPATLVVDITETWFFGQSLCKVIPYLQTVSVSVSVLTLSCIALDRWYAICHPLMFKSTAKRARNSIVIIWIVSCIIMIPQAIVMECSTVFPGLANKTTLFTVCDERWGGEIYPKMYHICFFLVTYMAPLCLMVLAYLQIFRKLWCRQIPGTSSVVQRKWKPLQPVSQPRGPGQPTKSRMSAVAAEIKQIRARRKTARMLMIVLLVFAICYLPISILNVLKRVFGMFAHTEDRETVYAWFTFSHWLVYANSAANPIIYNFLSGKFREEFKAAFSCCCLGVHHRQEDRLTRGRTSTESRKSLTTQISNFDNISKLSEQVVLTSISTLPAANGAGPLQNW
In short: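 Agonism was read as fluorescence in cells stably expressing human OX2R. E. is the response at 10 μM relative to orexin A as full agonist (100%).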

[4] = test system: mouse models; settings: cited from earlier work
[5] = test system: individuals with NT1; settings: cited from earlier work

Row | Compound | Wake % time 1 h post dose (increase from vehicle) ([1]; oral dose 3 mg/kg) [%] | Wake % time 1 h post dose (increase from vehicle) ([1]; oral dose 30 mg/kg) [%] | Wake % time 1 h post dose (increase from vehicle) [2] [%] | EC50 [3] [nM] | Emax [3] [%] | also measured
1 | O=C([C@H]1CCO1)N1CC2(CC2)[C@H](NS(=O)(=O)C(F)F)[C@@H]1Cc1cccc(-c2ccccc2)c1F [Compound 144, 1,1-difluoro-N-((6S,7S)-6-((2-fluoro-[1,1′-biphenyl]-3-yl)methyl)-5-((R)-oxetane-2-carbonyl)-5-azaspiro[2.4]heptan-7-yl)methanesulfonamide] | 26.7 | 29.2 | 27.2 | 0.0794 to 1 | 90 to 100 | –
2 | O=C([C@H]1CCO1)N1CC2(CC2)[C@H](NS(=O)(=O)C(F)F)[C@@H]1Cc1cccc(-c2cccc(F)c2)c1F [Compound 154, N-((6S,7S)-6-((2,3′-difluoro-[1,1′-biphenyl]-3-yl)methyl)-5-((R)-oxetane-2-carbonyl)-5-azaspiro[2.4]heptan-7-yl)-1,1-difluoromethanesulfonamide] | 24.4 | 24.5 | – | 0.0794 to 1 | 90 to 100 | –
3 | COC(=O)N1CCC[C@H](NS(C)(=O)=O)[C@@H]1CO[C@H]1CC[C@@H](c2ccccc2)CC1 [TAK-925] | – | – | – | – | – | wakefulness ([4]; subcutaneous, WT mice): modestly increased wakefulness; cataplexy [5]: trends for decreasing cataplexy; wakefulness [5]: substantial levels of increased wakefulness
4 | CS(=O)(=O)N[C@@H]1[C@H](Cc2cccc(-c3ccccc3)c2F)N(C(=O)[C@H]2CCO2)CC12CC2 (single isomer, unassigned) [Example 21] | 17.5 | 27.9 | 14.4 | – | – | –
5 | O=C([C@H]1CCO1)N1CC2(CC2)[C@H](NS(=O)(=O)C(F)F)[C@@H]1Cc1cccc(-c2cc(F)cc(F)c2)c1F [Compound 175] | 25.3 | 29 | – | 0.0794 to 1 | 90 to 100 | –
6 | O=C([C@H]1CCO1)N1CC2(CC2)[C@H](NS(=O)(=O)CF)[C@@H]1Cc1cc(F)cc(-c2ccccc2)c1F [Compound 145, N-((6S,7S)-6-((2,5-difluoro-[1,1′-biphenyl]-3-yl)methyl)-5-((R)-oxetane-2-carbonyl)-5-azaspiro[2.4]heptan-7-yl)-1-fluoromethanesulfonamide] | – | – | – | 0.0794 to 1 | 90 to 100 | Wake % time 1 h post dose (increase from vehicle) ([1]; oral dose 3 mg/kg, 3 mg/kg): 26.9%; Wake % time 1 h post dose (increase from vehicle) ([1]; oral dose 3 mg/kg, listed as 59, 3 mg/kg): 35.5%; Wake % time 1 h post dose (increase from vehicle) ([1]; oral dose 30 mg/kg, 30 mg/kg): 28.3%; Wake % time 1 h post dose (increase from vehicle) ([1]; oral dose 30 mg/kg, listed as 59, 30 mg/kg): 48.6%; Wake % time 1 h post dose (increase from vehicle) ([2]; 30 mg/kg): 25.8%; Wake % time 1 h post dose (increase from vehicle) ([2]; listed as 59, 30 mg/kg): 21.1%
7 | COc1ccc(-c2cccc(C(=O)N(C)C)c2)cc1S(=O)(=O)Nc1cccc(NCCNC(=O)c2ccccc2N(C)C)c1 [YNT-185] | – | – | – | – | – | sleep-onset REM periods and cataplexy-like events ([4]; NT1 mouse model): decrease sleep-onset REM periods and cataplexy-like events; wakefulness ([4]; intraperitoneally or ICV, wild type (WT) and orexin ligand-deficient mice): modestly increases wakefulness
8 | CCS(=O)(=O)N[C@@H]1[C@H](Cc2cccc(-c3cccc(F)c3)c2F)N(C(=O)[C@H]2CCO2)CC12CC2 [Compound 129, N-((6S,7S)-6-((2,3′-difluoro-[1,1′-biphenyl]-3-yl)methyl)-5-((R)-oxetane-2-carbonyl)-5-azaspiro[2.4]heptan-7-yl)ethanesulfonamide] | – | 25.0 | 19.3 | 0.0794 to 1 | 90 to 100 | –
